Calls of active or inactive are those of the source.
How the values were obtained:
fMet-Leu-Phe receptor = fMet-Leu-Phe receptor (Homo sapiens, UniProt P21462); assay: formyl peptide receptor binders – dose response (AID 519); assay type: functional
[1] = molecular target: T1, Trace amine-associated receptor 1 (Homo sapiens, UniProt Q96RJ0); assay: Fluorescence-based cell-based high throughput dose response assay to identify agonists of the human trace amine associated receptor 1 (TAAR1).; assay type: functional
T1 sequence (Q96RJ0 whole entry): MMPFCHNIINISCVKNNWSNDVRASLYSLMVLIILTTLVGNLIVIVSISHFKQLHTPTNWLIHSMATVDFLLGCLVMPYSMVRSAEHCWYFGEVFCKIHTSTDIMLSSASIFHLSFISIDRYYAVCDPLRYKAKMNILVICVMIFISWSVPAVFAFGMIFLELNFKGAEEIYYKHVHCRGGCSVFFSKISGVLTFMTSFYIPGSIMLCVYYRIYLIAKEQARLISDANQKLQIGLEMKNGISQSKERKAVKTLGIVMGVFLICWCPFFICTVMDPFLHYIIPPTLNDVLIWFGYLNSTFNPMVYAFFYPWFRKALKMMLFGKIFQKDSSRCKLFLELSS

[2] = molecular target: T2, Short transient receptor potential channel 4 (Mus musculus, UniProt Q9QUQ5); assay: calcium entry via TRPC4 opening agents – cell-based, HEK293 TRPC4/mu-opioid, Fluo-4 calcium, dose response (AID 434937); assay type: functional
T2 sequence (Q9QUQ5 whole entry): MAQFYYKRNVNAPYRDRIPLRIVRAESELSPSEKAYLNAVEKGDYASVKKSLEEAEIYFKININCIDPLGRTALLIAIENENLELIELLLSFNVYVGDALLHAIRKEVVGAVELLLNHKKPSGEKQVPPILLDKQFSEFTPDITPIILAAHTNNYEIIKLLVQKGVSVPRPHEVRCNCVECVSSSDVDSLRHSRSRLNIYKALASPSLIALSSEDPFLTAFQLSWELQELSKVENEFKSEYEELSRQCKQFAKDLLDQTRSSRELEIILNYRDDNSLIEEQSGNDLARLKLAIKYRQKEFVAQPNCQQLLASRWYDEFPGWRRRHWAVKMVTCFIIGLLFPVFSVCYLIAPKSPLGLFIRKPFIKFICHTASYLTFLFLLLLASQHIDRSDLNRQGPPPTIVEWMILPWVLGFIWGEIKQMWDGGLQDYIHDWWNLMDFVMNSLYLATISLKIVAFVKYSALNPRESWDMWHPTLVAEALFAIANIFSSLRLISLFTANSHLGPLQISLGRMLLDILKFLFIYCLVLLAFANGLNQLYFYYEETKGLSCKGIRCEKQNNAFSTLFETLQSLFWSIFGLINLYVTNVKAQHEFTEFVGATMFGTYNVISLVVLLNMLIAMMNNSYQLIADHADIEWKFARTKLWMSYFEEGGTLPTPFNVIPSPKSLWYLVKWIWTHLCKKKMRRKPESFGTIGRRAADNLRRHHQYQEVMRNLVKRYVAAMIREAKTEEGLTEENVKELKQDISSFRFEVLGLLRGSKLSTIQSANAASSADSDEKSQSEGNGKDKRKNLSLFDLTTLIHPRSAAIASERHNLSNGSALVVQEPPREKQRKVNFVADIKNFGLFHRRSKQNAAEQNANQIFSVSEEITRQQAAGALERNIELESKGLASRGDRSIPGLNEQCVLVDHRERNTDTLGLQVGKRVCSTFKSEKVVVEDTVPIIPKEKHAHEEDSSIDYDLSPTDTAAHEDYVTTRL

cells [3] = assay type: functional, cell-based
cells [4] = assay type: functional, cell-based; remark: listed apart in the source
[5] = molecular target: T1, Trace amine-associated receptor 1; assay: Counterscreen for agonists of the human trace amine associated receptor 1 (hTAAR1): Fluorescence-based cell-based high throughput dose response assay to identify hTAAR1 agonist that also desensitize TAAR1 receptor response.; assay type: functional
[6] = molecular target: Disintegrin and metalloproteinase domain-containing protein 17 (Homo sapiens, UniProt P78536); assay: exosite inhibitors of ADAM17, dose response, biochemical (AID 743260)
[7] = inhibition of ADAM10 peptide cleavage – biochemical, FRET peptide substrate, recombinant human ADAM10, selectivity assay for ADAM17 exosite inhibitor project, dose response (AID 743259);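 also: ADAM10 enzyme cleaving a FRET peptide substrate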
[8] = A549 cell cytotoxicity, dose response, cytotoxicity control, plate reader, cherry-pick, antagonist series (AID 743412); assay type: functional, cell-based
[9] = viability loss in HEK293 cells – cell-based, plate reader, cherry-picked samples, cytotoxicity control, dose response (AID 743446); assay type: functional
[10] = HGIII-sPLA2 enzyme inhibition potency – biochemical, QFRET, IC50, dose response (AID 743457);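 also: green fluorescence rise as the enzyme cleaves BODIPY PC-A2 in liposomes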
Kallikrein-7 = Kallikrein-7 (Homo sapiens, UniProt P49862); assay: Fluorescence Intensity-based biochemical primary high throughput dose response assay to identify activators of kallikrein-7 (K7) zymogen.
cells [11] = details: A549
Genome polyprotein = Genome polyprotein (dengue virus type 2, UniProt P29990); assay: flavivirus cap methylation enzyme inhibition – biochemical, confirmation dose response, primary screen (AID 588689); assay type: functional
[12] = molecular target: Histone-lysine N-methyltransferase NSD2 (Homo sapiens, UniProt O96028); assay type: biochemical
[13] = molecular target: T3, Heat shock factor protein 1 (Mus musculus, UniProt P38532); assay: enhancement of HSF1-driven luciferase signal – cell-based, NIH3T3, luminescence, dose retest, confirmation (AID 435004); assay type: functional;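 also: stress induced by proteasome inhibitor MG132 added 30 min after compound; luciferase reporter driven by HSF1 response element in NIH3T3 cells; actives raise luminescence as potentiators of the MG132 stress response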
T3 sequence (P38532 whole entry): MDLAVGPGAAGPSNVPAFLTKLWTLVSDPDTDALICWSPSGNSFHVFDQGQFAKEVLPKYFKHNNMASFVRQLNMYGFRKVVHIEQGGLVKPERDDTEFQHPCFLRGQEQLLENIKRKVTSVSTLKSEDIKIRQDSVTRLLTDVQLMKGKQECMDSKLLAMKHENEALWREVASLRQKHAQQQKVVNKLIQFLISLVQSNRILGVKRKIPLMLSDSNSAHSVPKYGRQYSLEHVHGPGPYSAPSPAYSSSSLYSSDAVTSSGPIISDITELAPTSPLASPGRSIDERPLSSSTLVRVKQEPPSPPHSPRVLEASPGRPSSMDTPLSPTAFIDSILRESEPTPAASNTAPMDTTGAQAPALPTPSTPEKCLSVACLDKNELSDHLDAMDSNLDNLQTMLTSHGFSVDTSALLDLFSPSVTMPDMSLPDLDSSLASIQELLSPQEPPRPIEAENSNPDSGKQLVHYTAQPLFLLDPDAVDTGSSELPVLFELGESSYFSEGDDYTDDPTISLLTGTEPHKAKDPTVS

[14] = toxicity toward HepG2 liver cells – cell-based, plate reader, cherry-pick, antagonist series, cytotoxicity control, dose response (AID 743416); assay type: functional
[15] = blockade of melanocortin 4 receptor signaling – cell-based, plate reader, cherry pick, counter-screen for LGR2 antagonist project, dose response (AID 743444); assay type: functional;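 also: transfected HEK 293 cells stimulated with alpha-MSH peptide; potency of inhibitors of the alpha-MSH evoked signal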
[16] = blockers of bursicon-stimulated LGR2 cAMP reporter – cell-based, HEK293, CRE-luciferase reporter, cherry pick, set 2, dose response (AID 743343); assay type: functional;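 also: transfected cells were stimulated with diluted bursicon conditioned medium after compound addition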
[17] = OVCAR-3 cell viability loss – plate reader, dry powder samples, PAX8 inhibitor project, dose response (AID 743044); assay type: functional, cell-based
[18] = OVCAR8 cell viability loss – plate reader, dry powder samples, PAX8 project, dose response (AID 743197); assay type: functional, cell-based; details: OVCAR-8
Paired box protein Pax-8 = Paired box protein Pax-8 (Homo sapiens, UniProt Q06710); assay: PAX8 transcriptional activity inhibition in RMG-I – RMG-I cells, luciferase, cherry-pick, dose response (AID 687027); assay type: functional, cell-based;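 also: luciferase reporter driven by Pax8 target thyroperoxidase promoter measured by SteadyGlo luminescence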
[19] = general cell-killing toxicity readout – plate reader, dry powder samples, cytotoxicity control for PAX8 inhibitor project, dose response (AID 743021); assay type: functional, cell-based
[20] = molecular target: Endoplasmic reticulum aminopeptidase 1 (Homo sapiens, UniProt Q9NZ08); assay: inhibition of human ERAP1 enzyme activity – biochemical, cherry-pick, set 2, plate reader, dose response (AID 743314)
[21] = Dd2 malaria parasite growth inhibition potency – SYBR Green, dry powder samples, dose response (AID 1159566); assay type: functional, cell-based;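 also: potency for growth inhibition with lower SYBR green DNA signal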
[22] = growth inhibition of yeast DHODH-expressing 3D7 parasites – SYBR Green, dry powder samples, dose response (AID 1159570); assay type: functional, cell-based;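 also: parasite growth measured after 72 hours of compound exposure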
[23] = toxicity to human HepG2 hepatoma cells – cell-based, plate reader, dry powder samples, cytotoxicity control, dose response (AID 1159569); assay type: functional;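 also: inhibitor potency with signal falling toward the positive control level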
[24] = P. falciparum Dd2 growth inhibitors, dose response, SYBR Green, cherry-picked samples (AID 1159567); assay type: functional, cell-based
[25] = growth inhibition of PfATP4-mutant resistant parasites – NITD609-resistant line, SYBR Green, dry powder, dose response (AID 1159571); assay type: functional, cell-based;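 also: parasites synchronized at ring stage by sorbitol before testing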
[26] = rise of 2N DNA cells, HeLa – IC50, dose response (AID 1117349); assay type: functional, cell-based
[27] = rise of 4N DNA cells, HeLa – IC50, dose response (AID 1117351); assay type: functional, cell-based
[28] = CellTiter-Glo luminescence survival assay, SW480 colon tumor line, concentration-response curve, half-maximal inhibitory concentration (AID 1117338); assay type: functional
[29] = SNU-C1 cell viability reduction, dose response, CellTiter-Glo luminescence (AID 1117323); assay type: functional, cell-based
[30] = RKO cell viability reduction, dose response, CellTiter-Glo luminescence (AID 1117322); assay type: functional
[31] = Reduced DLD-1 viability, concentration-response, CellTiter-Glo luminescence (AID 1117352); assay type: functional
[32] = cytotoxicity toward HT-29 cells – cell-based, CellTiter-Glo luminescence, IC50, dose response (AID 1117330); assay type: functional
[33] = cytotoxicity toward Colo320 cells – cell-based, CellTiter-Glo luminescence, IC50, dose response (AID 1117334); assay type: functional; details: COLO 320
[34] = cytotoxicity toward HCT116 cells – cell-based, CellTiter-Glo luminescence, IC50, dose response (AID 1117332); assay type: functional; details: HCT-116
[35] = IC50 of insulin release inhibition, rat insulinoma INS-1E line, 5 mM glucose, cell-based (AID 1117331); assay type: functional

Sequence of Kallikrein-7 (P49862 whole entry): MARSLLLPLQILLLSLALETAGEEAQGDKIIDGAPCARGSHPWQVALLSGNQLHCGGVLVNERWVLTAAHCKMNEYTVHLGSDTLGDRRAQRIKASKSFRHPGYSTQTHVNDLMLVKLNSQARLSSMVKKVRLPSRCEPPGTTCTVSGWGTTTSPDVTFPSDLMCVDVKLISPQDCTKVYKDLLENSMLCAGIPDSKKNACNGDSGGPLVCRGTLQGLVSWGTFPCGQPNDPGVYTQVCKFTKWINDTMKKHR
Sequence of Endoplasmic reticulum aminopeptidase 1 (Q9NZ08 whole entry): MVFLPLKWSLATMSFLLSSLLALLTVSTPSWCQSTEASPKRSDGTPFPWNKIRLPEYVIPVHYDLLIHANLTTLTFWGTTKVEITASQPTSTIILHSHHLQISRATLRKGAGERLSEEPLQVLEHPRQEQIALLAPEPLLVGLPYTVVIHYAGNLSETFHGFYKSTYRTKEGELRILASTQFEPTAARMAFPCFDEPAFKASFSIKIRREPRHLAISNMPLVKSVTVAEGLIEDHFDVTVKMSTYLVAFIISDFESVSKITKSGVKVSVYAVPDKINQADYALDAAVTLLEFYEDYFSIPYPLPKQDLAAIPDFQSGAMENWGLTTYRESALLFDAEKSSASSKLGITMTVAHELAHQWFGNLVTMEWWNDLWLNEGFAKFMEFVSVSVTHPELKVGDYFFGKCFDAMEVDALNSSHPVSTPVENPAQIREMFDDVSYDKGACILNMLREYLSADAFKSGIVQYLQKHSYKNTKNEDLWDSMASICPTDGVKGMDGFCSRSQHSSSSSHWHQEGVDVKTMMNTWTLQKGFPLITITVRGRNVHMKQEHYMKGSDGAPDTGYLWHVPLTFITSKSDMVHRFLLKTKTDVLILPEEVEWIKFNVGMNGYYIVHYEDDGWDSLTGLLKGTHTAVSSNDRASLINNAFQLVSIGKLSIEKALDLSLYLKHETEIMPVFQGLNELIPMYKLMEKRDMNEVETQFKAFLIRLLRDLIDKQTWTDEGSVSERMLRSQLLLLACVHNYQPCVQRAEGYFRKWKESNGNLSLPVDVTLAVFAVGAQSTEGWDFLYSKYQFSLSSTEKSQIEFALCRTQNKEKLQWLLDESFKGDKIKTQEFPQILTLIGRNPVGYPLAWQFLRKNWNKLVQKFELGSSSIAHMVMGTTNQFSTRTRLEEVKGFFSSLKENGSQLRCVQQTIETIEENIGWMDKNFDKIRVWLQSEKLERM
Sequence of fMet-Leu-Phe receptor (P21462 whole entry): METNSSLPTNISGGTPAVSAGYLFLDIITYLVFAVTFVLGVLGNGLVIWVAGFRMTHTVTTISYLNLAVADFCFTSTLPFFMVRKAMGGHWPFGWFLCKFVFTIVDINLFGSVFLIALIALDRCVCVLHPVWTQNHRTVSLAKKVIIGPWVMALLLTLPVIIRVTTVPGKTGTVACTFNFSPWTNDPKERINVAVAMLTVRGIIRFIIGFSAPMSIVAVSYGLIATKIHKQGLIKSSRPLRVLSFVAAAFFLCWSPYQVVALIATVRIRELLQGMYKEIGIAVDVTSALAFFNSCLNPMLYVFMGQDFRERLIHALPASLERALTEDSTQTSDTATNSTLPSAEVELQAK
Sequence of Disintegrin and metalloproteinase domain-containing protein 17 (P78536 whole entry, the tested form may be a part): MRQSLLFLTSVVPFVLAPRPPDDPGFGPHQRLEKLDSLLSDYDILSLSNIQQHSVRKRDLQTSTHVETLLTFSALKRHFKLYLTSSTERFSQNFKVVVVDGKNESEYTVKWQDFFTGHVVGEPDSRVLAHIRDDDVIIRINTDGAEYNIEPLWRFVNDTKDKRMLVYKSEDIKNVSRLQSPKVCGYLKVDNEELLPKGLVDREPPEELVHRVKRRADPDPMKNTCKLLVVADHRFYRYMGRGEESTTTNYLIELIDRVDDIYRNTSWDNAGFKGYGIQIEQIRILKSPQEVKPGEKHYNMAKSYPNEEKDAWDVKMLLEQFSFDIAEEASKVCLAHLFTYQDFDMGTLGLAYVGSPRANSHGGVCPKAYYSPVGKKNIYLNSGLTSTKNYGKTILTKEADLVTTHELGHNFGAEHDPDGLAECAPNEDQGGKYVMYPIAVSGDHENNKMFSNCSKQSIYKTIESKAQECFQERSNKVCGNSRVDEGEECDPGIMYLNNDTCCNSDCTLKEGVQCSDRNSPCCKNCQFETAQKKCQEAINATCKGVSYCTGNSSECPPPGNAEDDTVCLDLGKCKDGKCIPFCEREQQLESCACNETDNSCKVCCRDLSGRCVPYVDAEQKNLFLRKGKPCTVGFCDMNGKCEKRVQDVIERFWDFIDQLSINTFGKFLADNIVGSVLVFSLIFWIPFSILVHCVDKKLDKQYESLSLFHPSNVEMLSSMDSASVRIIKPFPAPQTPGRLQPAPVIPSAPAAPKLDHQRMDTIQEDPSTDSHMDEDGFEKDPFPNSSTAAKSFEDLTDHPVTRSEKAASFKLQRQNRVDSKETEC
Sequence of Histone-lysine N-methyltransferase NSD2 (O96028 whole entry): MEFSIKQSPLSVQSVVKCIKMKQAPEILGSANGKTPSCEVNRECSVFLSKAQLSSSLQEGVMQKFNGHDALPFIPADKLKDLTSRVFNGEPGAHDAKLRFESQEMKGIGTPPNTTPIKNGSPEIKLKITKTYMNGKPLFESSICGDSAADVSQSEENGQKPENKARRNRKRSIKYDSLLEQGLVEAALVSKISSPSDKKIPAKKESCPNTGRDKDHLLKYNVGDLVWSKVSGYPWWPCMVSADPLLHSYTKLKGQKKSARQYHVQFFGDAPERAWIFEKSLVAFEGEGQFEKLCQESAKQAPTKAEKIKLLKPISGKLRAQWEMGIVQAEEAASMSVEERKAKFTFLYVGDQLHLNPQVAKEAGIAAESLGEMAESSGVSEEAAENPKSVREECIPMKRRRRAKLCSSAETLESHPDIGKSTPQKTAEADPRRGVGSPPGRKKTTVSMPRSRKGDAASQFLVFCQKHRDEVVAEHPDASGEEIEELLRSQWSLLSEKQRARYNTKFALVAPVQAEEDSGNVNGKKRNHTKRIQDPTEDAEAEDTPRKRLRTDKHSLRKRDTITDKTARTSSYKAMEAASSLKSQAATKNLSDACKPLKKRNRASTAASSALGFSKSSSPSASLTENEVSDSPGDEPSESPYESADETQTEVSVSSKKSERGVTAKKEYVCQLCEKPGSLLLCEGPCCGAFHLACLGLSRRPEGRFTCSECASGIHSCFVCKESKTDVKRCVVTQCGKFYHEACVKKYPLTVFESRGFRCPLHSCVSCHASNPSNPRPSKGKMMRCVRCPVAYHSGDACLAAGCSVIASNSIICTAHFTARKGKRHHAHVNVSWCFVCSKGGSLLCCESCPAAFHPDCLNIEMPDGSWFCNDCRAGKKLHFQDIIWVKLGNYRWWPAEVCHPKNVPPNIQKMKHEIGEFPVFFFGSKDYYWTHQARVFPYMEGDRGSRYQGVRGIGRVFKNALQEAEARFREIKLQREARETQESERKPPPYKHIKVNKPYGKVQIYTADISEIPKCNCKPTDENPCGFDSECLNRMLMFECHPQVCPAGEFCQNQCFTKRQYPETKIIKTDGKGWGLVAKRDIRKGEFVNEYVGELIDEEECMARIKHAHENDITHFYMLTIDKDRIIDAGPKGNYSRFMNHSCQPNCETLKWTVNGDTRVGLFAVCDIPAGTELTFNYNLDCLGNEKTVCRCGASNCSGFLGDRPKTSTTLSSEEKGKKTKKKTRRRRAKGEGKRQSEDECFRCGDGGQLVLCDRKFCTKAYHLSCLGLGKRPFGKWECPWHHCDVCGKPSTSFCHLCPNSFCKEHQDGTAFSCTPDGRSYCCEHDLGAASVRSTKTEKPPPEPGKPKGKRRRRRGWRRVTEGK
Sequence of Paired box protein Pax-8 (Q06710 whole entry): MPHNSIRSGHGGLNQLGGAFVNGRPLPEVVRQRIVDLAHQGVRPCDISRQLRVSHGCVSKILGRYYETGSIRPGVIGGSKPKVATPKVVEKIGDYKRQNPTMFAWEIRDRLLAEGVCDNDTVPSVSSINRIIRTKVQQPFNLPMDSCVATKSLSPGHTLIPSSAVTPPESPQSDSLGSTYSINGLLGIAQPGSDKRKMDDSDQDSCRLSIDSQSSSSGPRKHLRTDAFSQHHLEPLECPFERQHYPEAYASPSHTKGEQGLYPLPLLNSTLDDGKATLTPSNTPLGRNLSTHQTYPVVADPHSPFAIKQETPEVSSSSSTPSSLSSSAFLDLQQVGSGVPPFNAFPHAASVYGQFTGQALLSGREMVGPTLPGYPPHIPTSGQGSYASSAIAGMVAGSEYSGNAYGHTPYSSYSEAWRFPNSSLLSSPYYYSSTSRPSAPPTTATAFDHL

SMILES: COCCCN1C(=O)C(O)=C(C(=O)c2ccco2)C1c1cccc(Br)c1 (centres undefined)
- Ki (fMet-Leu-Phe receptor): 31.2 µM (inactive)

SMILES: CCOC(=O)C1CCCN(C(c2ccccn2)c2c(C)[nH]c3ccccc23)C1 (centres undefined)
- EC50 [1]: 22.3 µM (inactive)
- EC50 [2]: 5.31 µM (active)
- EC50 (cells [3]): > 29.9 µM (inactive)
- IC50 (cells [4]): > 29.9 µM (inactive)
- IC50 [5]: 2.65 µM (active)

SMILES: CC(=O)n1cc([C@@H]2C=C(C(=O)Nc3ccccc3)O[C@H](OCc3ccc(CO)cc3)C2)c2ccccc21
- IC50 [6]: > 69.5 µM (inactive)
- IC50 [7]: > 69.5 µM (inactive)

SMILES: O=c1cc(-c2c(F)c(F)c(F)c(F)c2F)oc2ccccc12
- AC50 [8]: 17.4 µM (active)
- AC50 [9]: 37.5 µM (active)

SMILES: CCOc1ccc(-n2c(N)c(-c3nc4ccccc4[nH]3)sc2=S)cc1
- IC50 [10]: > 122 µM (inactive)

SMILES: Nc1ccc(Cl)cc1C(=O)OCC(=O)NC1CCS(=O)(=O)C1 (centres undefined)
- EC50 (Kallikrein-7): > 7.72 µM (active)

SMILES: Cc1cc(N2C(=O)C(O)=C(C(=O)c3ccc(F)cc3)C2c2cccc(Br)c2)no1 (centres undefined)
- Ki (fMet-Leu-Phe receptor): > 66.7 µM (inactive)

SMILES: COc1cc(C2C3=C(CC(C)(C)CC3=O)N(C)C3=C2C(=O)CC(C)(C)C3)cc(Br)c1O
- AC50 (cells [11]): > 52 µM (inactive)

SMILES: O=C(O)CN1C(=O)/C(=C\c2cc(Br)ccc2OCc2ccc(F)cc2)SC1=S
- IC50 (Genome polyprotein): 31.4 µM (active)
- AC50 [12]: 18.5 µM (active)
- EC50 [13]: > 260 µM (inactive)

SMILES: COc1cc(OC)nc(Nc2nc(C(N)Cc3ccc(C(F)(F)F)cc3)cs2)n1 (centres undefined)
- AC50 [14]: 7.18 µM (active)
- AC50 [15]: 24.8 µM (active)
- AC50 [8]: 7.58 µM (active)
- AC50 [9]: 15.7 µM (active)
- AC50 [16]: 18.9 µM (active)

SMILES: Cc1cccc(/C=N/c2ccccc2C(N)=O)c1
- EC50 (Kallikrein-7): > 69.5 µM (inactive)

SMILES: CN(C)CC(=O)N1CCCCN2[C@H](CO)[C@H](c3ccc(/C=C/c4ccccc4)cc3)[C@H]2C1
- AC50 [17]: 47.6 µM (active)
- AC50 [18]: 69.1 µM (active)
- AC50 (Paired box protein Pax-8): 9.31 µM (active)
- AC50 [19]: 42.9 µM (active)

SMILES: COCC(=O)N1[C@@H]2c3ccc(/C=C/c4ccccc4)c(=O)n3C[C@H]1[C@H](CO)[C@H]2C(=O)N1CCOCC1
- AC50 [20]: 4.85 µM (active)

SMILES: C/C(=N\NC(=O)CC#N)c1cc2ccc(O)cc2oc1=O
- AC50 [20]: 6.38 µM (active)

SMILES: C[C@H]1CN([C@@H](C)CO)C(=O)c2c(c3ccccc3n2C)-c2ccccc2CO[C@H]1CN(C)C(=O)Nc1cccc(Cl)c1Cl
- AC50 [21]: 785 nM (active)
- AC50 [22]: 1.77 µM (active)
- AC50 [23]: 18.7 µM (active)
- AC50 [24]: 3.09 µM (active)
- AC50 [25]: 897 nM (active)

SMILES: O=S(=O)(c1ccc(F)cc1)N1CCCCN2[C@@H](CO)[C@@H](c3ccc(C4=CCCCC4)cc3)[C@@H]2C1
- AC50 [21]: 1070 nM (active)
- AC50 [22]: 1.15 µM (active)
- AC50 [23]: 12.8 µM (active)
- AC50 [24]: 1.69 µM (active)
- AC50 [25]: 915 nM (active)

SMILES: C1CN(P2(N3CC3)=NP(N3CC3)(N3CC3)=NP(N3CC3)(N3CC3)=N2)CCO1 (centres undefined) [FOTRETAMINE]
- IC50 [26]: > 10 µM (inactive)
- IC50 [27]: > 10 µM (inactive)

SMILES: Cc1onc(-c2ccccc2)c1-c1ccc(S(N)(=O)=O)cc1 [VALDECOXIB]
- IC50 [28]: > 20 µM (inactive)
- IC50 [29]: > 20 µM (inactive)
- IC50 [30]: > 20 µM (inactive)
- IC50 [31]: > 20 µM (inactive)
- IC50 [32]: > 20 µM (inactive)
- IC50 [33]: > 20 µM (inactive)
- IC50 [34]: > 20 µM (inactive)

SMILES: CCCC(CCC)C(=O)O [VALPROIC ACID]
- IC50 [35]: > 33.3 µM (inactive)

From ChEMBL document CHEMBL1201862, “PubChem BioAssay data set” (2004)
